Measurements taken from PMC9179928 (Journal of medicinal chemistry, 2021).
pEC50: −log10 of the molar value.

What was measured:
EV-D68 US/KY/14-18953 = assay: CPE assay, EV-D68 US/KY/14-18953 in RD cells; type: cell-based, enterovirus D68; conditions: vs 7a
EV-D68 US/MO/14-18947 [1] = assay: Immunofluorescence assay; type: cell-based, enterovirus D68; conditions: at 50 μM, SH-SY5Y cells, positive control
[2] = tested on: EV-D68 and EV-A71 strains; assay: organism not typed; type: cell-based; conditions: for pEC50: RD, read-out: EC50 values against all EV-D68 and EV-A71 strains tested; for selectivity index over all EV-D68 and EV-A71 strains tested: strains of Table 2, RD cells
EV-D68 US/MO/14-18947 [3] = assay: Plaque assay, EV-D68 US/MO/14-18947 in RD cells; type: cell-based, enterovirus D68; conditions: at 3 μM, positive control
EV-D68 2C-D323G mutant = type: binding; conditions: 7d at 100 μM
CVB3 2C protein = CVB3 2C protein (Coxsackievirus B3, UniProt P03313); type: binding; conditions: 7d at 10, 30, 100 and 300 μM
EV-D68 2C-D183V mutant = type: binding; conditions: 7d at 100 μM
[4] = tested on: EV-D68 2C-D183V/D323G double mutant; type: binding; conditions: 7d at 100 μM
EV-A71 2C protein = type: binding; conditions: 7d at 10, 30, 100 and 300 μM

| Structure (SMILES) | improvement in antiviral efficacy compared to the original hit 7a against EV-D68 virus (EV-D68 US/KY/14-18953) | pEC50 [2] | other results |
| --- | --- | --- | --- |
| CC(C)n1ncc2c(C(=O)NC3CCN(C)C3)cc(C3CC3)nc21 (stereo not drawn) [7g, 6-cyclopropyl-N-(1-methylpyrrolidin-3-yl)-1-(propan-2-yl)-1H-pyrazolo[3,4-b]pyridine-4-carboxamide] | more than 100 fold | – | – |
| CC(C)n1ncc2c(C(=O)NCCN3CCCC3)cc(C3CC3)nc21 [7b, 6-cyclopropyl-1-(propan-2-yl)-N-[2-(pyrrolidin-1-yl)ethyl]-1H-pyrazolo[3,4-b]pyridine-4-carboxamide] | more than 100 fold | – | – |
| Cc1cc(CCCOc2c(C)cc(-c3noc(C(F)(F)F)n3)cc2C)on1 [pleconaril] | – | – | viral replication (VP1 fluorescence signal) (EV-D68 US/MO/14-18947 [1]): completely abolished viral replication |
| CC(C)c1cc(C(=O)NCCN(C)C)c2cnn(C(C)C)c2n1 [10a, N-[2-(dimethylamino)ethyl]-1,6-bis(propan-2-yl)-1H-pyrazolo[3,4-b]pyridine-4-carboxamide] | – | 6.52 to 7.22 | selectivity index over all EV-D68 and EV-A71 strains tested [2]: over 700 |
| Cc1cc(C(=O)NCCN(C)C)c2c(C)nn(C(C)(C)C)c2n1 [compound 19, 1-tert-butyl-N-[2-(dimethylamino)ethyl]-3,6-dimethyl-1H-pyrazolo[3,4-b]pyridine-4-carboxamide] | – | 5.13 to 6.40 | – |
| CCC[C@H](NC(=O)[C@@H]1[C@H]2CCC[C@H]2CN1C(=O)[C@@H](NC(=O)[C@@H](NC(=O)c1cnccn1)C1CCCCC1)C(C)(C)C)C(=O)C(=O)NC1CC1 [Telaprevir] | – | – | inhibition of plaque formation (EV-D68 US/MO/14-18947 [3]): complete inhibition of plaque formation |
| CC(CN(C)C)NC(=O)c1cc(C2CC2)nc2c1cnn2C(C)C (stereo not drawn) [7f, 6-cyclopropyl-N-[1-(dimethylamino)propan-2-yl]-1-(propan-2-yl)-1H-pyrazolo[3,4-b]pyridine-4-carboxamide] | more than 100 fold | – | – |
| CNCCNC(=O)c1cc(C2CC2)nc2c1cnn2C(C)C [7h, 6-cyclopropyl-N-[2-(methylamino)ethyl]-1-(propan-2-yl)-1H-pyrazolo[3,4-b]pyridine-4-carboxamide] | more than 100 fold | 6.52 to 7.22 | selectivity index over all EV-D68 and EV-A71 strains tested [2]: over 700 |
| CC(C)n1ncc2c(C(=O)NCCN(C)C)cc(C3CC3)nc21 [7d, 6-cyclopropyl-N-[2-(dimethylamino)ethyl]-1-(propan-2-yl)-1H-pyrazolo[3,4-b]pyridine-4-carboxamide] | more than 100 fold | 7.00 to 7.40 | ΔTm, 2C-D323G mutant (EV-D68 2C-D323G mutant): 3.92 °C; binding to CVB3 2C protein (CVB3 2C protein): dose-dependent binding; ΔTm, 2C-D183V mutant (EV-D68 2C-D183V mutant): 0.01 °C; ΔTm, 2C-D183V/D323G double mutant [4]: 0.61 °C; binding to EV-A71 2C protein (EV-A71 2C protein): dose-dependent binding |
